From EP1967187A1, “Composition based on rutin and L-lysine” (Ennamany, Rachid, priority 2007, dated 2008) come the findings set out here.

The target in this test is T1, arginase Th2-dépendante (Homo sapiens, UniProt P05089).
T1 sequence (P05089 1-322): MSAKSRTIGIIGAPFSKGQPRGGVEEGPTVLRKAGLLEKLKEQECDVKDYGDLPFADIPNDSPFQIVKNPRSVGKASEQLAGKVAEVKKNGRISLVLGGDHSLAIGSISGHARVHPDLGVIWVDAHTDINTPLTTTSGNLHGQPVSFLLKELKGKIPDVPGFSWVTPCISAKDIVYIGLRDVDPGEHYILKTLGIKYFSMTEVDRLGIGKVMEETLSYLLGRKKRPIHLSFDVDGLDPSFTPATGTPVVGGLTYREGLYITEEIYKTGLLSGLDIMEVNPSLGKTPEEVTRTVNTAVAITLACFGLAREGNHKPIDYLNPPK
Briefly: Inhibition of Th2-dependent arginase. The test is classed as biochemical.

As for `NCCCC[C@H](N)C(=O)O` [L-Lysine, L-lysine], the “action sur l'arginase Th2-dépendante” value is reported as “action inhibitrice”.
